Results on three molecules are retold here after paper PMC6689897, “Drugging an undruggable pocket on KRAS” (Proceedings of the National Academy of Sciences of the …, 2019).

In one experiment the target is GTP-KRASG12D::SOS1 (Homo sapiens, UniProt P01116, G12D). Put plainly: Alpha Screen PPI assay. In kind it is biochemical. Particulars: duplicate. The procedure: page 6: 217 The coordinates and structure factors of the structures have been deposited at the 218 Protein Data Bank with the accession codes PDB Code 6GJ5, 6GJ6, 6GJ7, 6GJ8. 219 220 Alpha Screen Assays 221 Measurements of various protein-protein interactions were performed using the Alpha 222 Screen technology developed by Perkin Elmer. Recombinant RAS proteins (H-, […] RAS variants; all KRAS variants are based on KRAS isoform 4B (uniprot id P01116-2); 224 KRAS (G12D) 1-169, N-terminal 6His-tag, C-terminal avi-tag was from Xtal 225 BioStructures, Inc., KRAS (G12C) 1-169, C-terminal avi-tag, biotinylated, mutations: 226 C51S, C80L, C118S, NRAS(wt) 1-172, C-terminal avi-tag, biotinylated; HRAS(wt) 1- 227 166, C-terminal avi-tag, biotinylated). Biotinylation was performed in vitro with 228 recombinant BirA biotin-protein ligase as recommended by the manufacturer (Avidity 229 LLC, Aurora, Colorado, USA). Interacting proteins such as SOS1 (564-1049, N-terminal 230 GST-tag, TEV cleavage site), cRaf (1-303, N-terminal GST-tag, TEV cleavage site) and 231 PI3KA- RBD (160-317, N-term-HIS_GST-tag) were expressed as glutathione S 232 transferase (GST) fusions. […] Single oxygen induced fluorescence was 246 measured at an Enspire multimode plate reader (Perkin Elmer) according to the 247 manufacturer's recommendations. Data were analyzed using the GraphPad Prism data 248 software. […]

The next experiment concerns NCI-H358 cells. The experiment in a line: 2D proliferation assay. Type of experiment: cell-based, human. Particulars: standard 2D culture conditions. On the procedure:
263 (ATCC® CCL-224™; grown in RPMI 10% FCS) and SK-MEL-28 (ATCC® HTB-
264 72™, grown in EMEM 10% FCS). Cell cultures were incubated at 37 °C and 5% CO2 in
265 a humidified atmosphere, with medium change or subcultivation 2-3 times a week.
269 Cells were lysed in 1x lysis buffer (Cell Signaling #9803) and protein concentration
270 normalized to 10µg/µL. Proteins were separated by SDS-Page and transferred to
271 Nitrocellulose membranes (BioRad) according to standard protocols. Membranes were
273 (Milipore #06-182) and Tubulin (Cell Signaling #2144) in 5% BSA in TBST blocking
274 buffer. After primary antibody incubation membranes were incubated with anti-rabbit
275 IgG secondary antibody (Dako #P0448) and detected with ECL (GE Healthcare Life
278 Compound treatment of cells
279 Synthesized or purchased (ARS 1620) compounds were dissolved in 100% DMSO and
280 stored at a concentration of 10mM at -20°C. Compounds were either serially diluted in
281 medium or directly added to reach the intended final concentration. DMSO was added
282 to control reactions as reference to keep the final DMSO concentration in all samples
285 2D proliferation assay: […]
Quantification of living cells […]
291 manufacturer’s recommendation. Luminescence was read in a 2030 VICTOR X5 (Perkin […]
305 were trypsinized, counted and plated in 60 µL culture medium containing 2% FCS […]

Experiment [1] has as its target SOScat-catalyzed nucleotide exchange on RAS (Homo sapiens, UniProt P01116). Put plainly: SOS1 nucleotide exchange assay (BODIPY-GDP).
The target of another experiment is GCP-KRAS^G12D,C118S (Homo sapiens, UniProt P01116, C118S/G12D). The experiment in a line: NMR KD, T35 construct (G12D, C118S), GCP-bound. In kind it is binding. The conditions noted are these: versus 17.

pIC50: −log10 of the molar value.

With `Cn1cnc(Cn2ccc3ccc(CNCc4[nH]c5ccccc5c4[C@H]4NC(=O)c5ccc(O)cc54)cc32)c1` [Compound 1], on GTP-KRASG12D::SOS1, the pIC50 is 6.31. In addition, the antiproliferative effect result with NCI-H358 cells is listed as “No antiproliferative effect”. In experiment [1] (highest concentrations), the SOScat-mediated exchange result is on record as “full inhibition”. In addition, the SOS1-catalyzed nucleotide exchange result in experiment [1] (several concentrations) is given as “inhibits the rate of nucleotide exchange in a dose-dependent manner”.

As for `C=CC(=O)N1CCN(c2ncnc3c(F)c(-c4c(O)cccc4F)c(Cl)cc23)CC1` [ARS-1620, reference compound], the negative logarithm of the IC50 (pIC50) on GTP-KRASG12D::SOS1 is less than 5.00.

As for `CN(C)Cc1[nH]c2ccccc2c1[C@H]1NC(=O)c2ccc(O)cc21` [Compound 18], the “more potent than nonphenolic matched molecular pair 17” value at GCP-KRAS^G12D,C118S came to 6 fold.

What is called pIC50 is the negative decadic logarithm of the IC50, by convention in mol/L. Low readings indicate a large IC50, high ones a small IC50.
